Source: article PMC3621174, “A cell based high-throughput screening approach for the discovery of new inhibitors of respiratory syncytial virus” (Virology Journal, 2013)
Where two headings read alike, the source gives them in different places.

Columns and labels:
RSV strain Long = assay: Plaque reduction assay in HEp-2 cells; assay type: cell-based, Human respiratory syncytial virus; details: 25 μM test compound, MOI 0.1, HEp-2
Method: These compounds were evaluated for their ability to reduce the amount of infectious virus produced in cell culture. HEp-2 cells were infected with hRSV in the presence of 25 μM test compound. Media supernatants were removed and 10-fold serial-diluted onto a confluent field of uninfected, untreated HEp-2 cells, bound, washed, and overlaid with agarose. After six days, plaques were fixed, stained, and counted to determine the amount of infectious virus in the original, drugged supernatants (Figure 8).
Figure 8 Plaque reduction assay in HEp-2 cells. RSV strain Long was assayed for its sensitivity to five compounds. Supernatants were harvested from test (25 μM) or control compound (35 μM) treated RSV-infected HEp-2 cells at a multiplicity of infection (MOI) of 0.1. Serial dilutions of the supernatants were added to monolayers of HEp-2 cells in 24-well plates. Cells were fixed after 6 days and stained with neutral red. Plaque reduction assays were performed in triplicate per compound. CC, uninfected cell control; VC, untreated virus-infected control. The concentration of DMSO in each assay well, including all control wells was 0.5%.
Compounds or carrier control (DMSO) were diluted in Complete DMEM/F12 and 2 mL per well was dispensed to 6-well assay plates (final plate well concentration was 25 μM, ribavirin; 35 μM and final DMSO concentration 0.5%). […]

hRSV (strain Long) [1] = assay: 384-well CPE inhibition assay, hRSV-infected HEp-2 cells, Cell Titer Glo endpoint; assay type: cell-based; details: human respiratory syncytial virus, 144 h; HEp-2, virus MOI = 0.5, 8 point dose response 50-0.39 uM, 6 days, triplicate; read-out: EC50 (efficacy)
Method: (§1) Figure 3 Dose response of ribavirin. HEp-2 cells were plated in 384-well black tissue culture plates at 2,000 cells per well. Ribavirin or carrier control (DMSO) were diluted to 6x in Complete DMEM/F12 and serially diluted 1:2 resulting in an 8 point dose response dilution series. (final plate well concentration ranging from 50 uM to 0.39 uM and a final DMSO concentration of 0.5%). For dose response screening, cells were infected with a 1:500 dilution of virus (viral MOI = 0.5). The assay plates were incubated for six days at 37°C, 5% CO2 and 90% relative humidity and the inhibitory effects of the drug were assessed using Cell Titer Glo. […]
(§2) Following the six day incubation period, the assay plates were equilibrated to room temperature for 30 min. […] At the end of the incubation, luminescence was measured using a multi-label reader (Envision, PerkinElmer, Wellesley, MA) with an integration time of 0.1 s.
(§3) HTS data were analyzed using ActivityBase software (IDBS, Inc., Guildford, UK). Antiviral activity is described as percent CPE inhibition = 100*((luminescence compound well minus median luminescence virus control)/ (median luminescence cell control minus median luminescence virus control)). Percent viability = 100 * luminescence compound well/median luminescence cell control. […] Two dose-response curves were calculated for each substance. […] The selective index (SI) was calculated as SI = CC50/EC50. […]

[2] = Cytotoxicity dose response in HEp-2 cells (Cell Titer Glo); assay type: cell-based; details: human, HEp-2, 8 point dose response, duplicate
Method: as §1, §2, §3

hRSV (strain Long) [3] = tested on: hRSV (strain Long); parameters: method as in PMID 14638398; details: previously reported value; cited from earlier work

SMILES	reduction in virus titer (pfu/mL) from control (RSV strain Long) [log]	EC50 (hRSV (strain Long) [1]) [µM]	CC50 at 6 days [2] [µM]	EC50 (hRSV (strain Long) [3]) [µM]
O=C(O)C1CC=CCC1C(=O)Nc1ccc(S(=O)(=O)N2CCCc3ccccc32)cc1 (centres unmarked) [SID 93616804]	6.5			
COc1ccccc1CNC(=O)C1CCN(S(=O)(=O)c2cccc3nonc23)CC1 [compound 93616803]	4			
NC(=O)c1ncn([C@@H]2O[C@H](CO)[C@@H](O)[C@H]2O)n1 [ribavirin]		~40	~75	41
